Reference: US10188106B2 (priority 2008, dated 2019)
Where a name gives a salt, the structure may show the parent alone. Read-outs that look alike come from different tables or passages of the source.

Key:
Type in all cases: in vivo
Botrytis cinerea = test: Botrytis test (beans)/protective; conditions: bean plants, protective spray, lesion size 2 days after inoculation
Method: (§1) Solvent: 24.5 parts by weight of acetone
(§2) • 24.5 parts by weight of dimethylacetamide Emulsifier: 1 part by weight of alkylaryl polyglycol ether
(§3) To produce a suitable preparation of active compound, 1 part by weight of active compound is mixed with the stated amounts of solvent and emulsifier, and the concentrate is diluted with water to the desired concentration.
To test for protective activity, young plants are sprayed with the preparation of active compound. After the spray coating has dried on, 2 small pieces of agar covered with growth of Botrytis cinerea are placed on each leaf. The inoculated plants are placed in a darkened chamber at 20° C. and a relative atmospheric humidity of 100%.
2 days after the inoculation, the size of the lesions on the leaves is evaluated. 0% means an efficacy which corresponds to that of the control, while an efficacy of 100% means that no disease is observed.

Phytophthora infestans = conditions: tomato plants, protective spray, evaluated 3 days after inoculation
Alternaria solani = test: Alternaria test (tomatoes)/protective; conditions: tomato plants, protective spray, evaluated 3 days after inoculation; for pest or weed control at 50 ppm: rate of application 50 ppm; for pest or weed control at 25 ppm: rate of application 25 ppm
Method: as §1, §2, §3
(§4) To test for protective activity, young plants are sprayed with the preparation of active compound at the stated rate of application. After the spray coating has dried on, the plants are inoculated with an aqueous spore suspension of Alternaria solani. The plants are then placed in an incubation cabinet at approximately 20° C. and a relative atmospheric humidity of 100%.
The test is evaluated 3 days after the inoculation. 0% means an efficacy which corresponds to that of the control while an efficacy of 100% means that no disease is observed.

Venturia inaequalis = test: Venturia test (apples)/protective; conditions: apple plants, protective spray, rate of application 100 ppm, evaluated 10 days after inoculation
Method: as §1, §2, §3
as §4, with “conidia” for “spore”, “the causal agent of apple scab (Venturia inaequalis) and” for “Alternaria solani. The plants are”, “remain for 1 day” for “placed”
The plants are then placed in a greenhouse at approximately 21° C. and a relative atmospheric humidity of approximately 90%.
The test is evaluated 10 days after the inoculation. 0% means an efficacy which corresponds to that of the control, while an efficacy of 100% means that no disease is observed.

[1] = Alternaria solani, 72 h, rate of application 10 ppm, read-out: Efficacy in %
[2] = Alternaria solani, 72 h, read-out: Efficacy in %

Q: With `O=C(Nc1ccccc1-c1ccc(Cl)cc1)c1cccnc1Cl` [boscalid] as the molecule, how does the Efficacy in % (Botrytis cinerea; rate of application 5 ppm) read?
A: The Efficacy in % was 21%.

Q: How did the Efficacy in % (Phytophthora infestans; rate of application 1 ppm) turn out when `Cc1ccc(C(C)NC(=O)[C@@H](NC(=O)OC(C)C)C(C)C)cc1` (stereo partly drawn) [iprovalicarb] was run?
A: Its Efficacy in % is 16%.

Q: For `CO/C=C(/C(=O)OC)c1ccccc1Oc1cc(Oc2ccccc2C#N)ncn1` [azoxystrobin], which Efficacy in % (Alternaria solani; rate of application 10 ppm) is on record?
A: Its Efficacy in % is 15%.

Q: How did the pest or weed control at 10 ppm (Alternaria solani; [1]) turn out when `CC(C)(C)C(O)(CCc1ccc(Cl)cc1)Cn1cncn1` (stereo not drawn) [tebuconazole] was run?
A: Its pest or weed control at 10 ppm is 55%.

Q: With `O=[N+]([O-])c1cc(C(F)(F)F)c(Cl)c([N+](=O)[O-])c1Nc1ncc(C(F)(F)F)cc1Cl` [fluazinam] as the molecule, how does the Efficacy in % (Botrytis cinerea; rate of application 10 ppm) read?
A: The Efficacy in % was 79%.

Q: What does the source list for `N#Cc1c(Cl)c(Cl)c(Cl)c(C#N)c1Cl` [chlorothalonil]?
A: Efficacy in % (Phytophthora infestans; rate of application 25 ppm): 44%; pest or weed control at 50 ppm (Alternaria solani; [2]): 71%

Q: With `Cc1nn(C)c(F)c1C(=O)Nc1ccccc1C(C)CC(C)C` (stereo not drawn) [N-[2-(1,3-dimethylbutyl)phenyl]-5-fluoro-1,3-dimethyl-1H-pyrazole-4-carboxamide] as the molecule, how does the pest or weed control at 1 ppm (Alternaria solani; Alternaria solani, 72 h, rate of application 1 ppm, read-out: Efficacy in %) read?
A: Its pest or weed control at 1 ppm is 18%.

Q: `CCO[PH](=O)O` [fosetyl-Al] was tested. Which Efficacy in % (Phytophthora infestans; rate of application 10 ppm) did it give?
A: The Efficacy in % was 0%.

Q: How did the pest or weed control at 10 ppm (Alternaria solani; [1]) turn out when `COC(=O)N(OC)c1ccccc1COc1ccn(-c2ccc(Cl)cc2)n1` [pyraclostrobin] was run?
A: Its pest or weed control at 10 ppm is 45%.

Q: Which Efficacy in % (Venturia inaequalis) does the source give for `CCNC(=O)NC(=O)/C(C#N)=N/OC` [cymoxanil] here?
A: The Efficacy in % was 23%.

Q: And the pest or weed control at 50 ppm (Alternaria solani; [2])?
A: Its pest or weed control at 50 ppm is 23%.

Q: How did the pest or weed control at 2.5 ppm (Alternaria solani; Alternaria solani, 72 h, rate of application 2.5 ppm, read-out: Efficacy in %) turn out when `OC(Cc1ccccc1Cl)(Cn1nc[nH]c1=S)C1(Cl)CC1` (stereo not drawn) [prothioconazole] was run?
A: Its pest or weed control at 2.5 ppm is 23%.

Q: Which Efficacy in % (Phytophthora infestans; rate of application 10 ppm) does the source give for mancozeb here?
A: The Efficacy in % was 0%.

Q: Which results are given for `CCCOC(=O)NCCCN(C)C` [propamocarb-HCl]?
A: Efficacy in % (Venturia inaequalis): 4%; pest or weed control at 50 ppm (Alternaria solani; [2]): 38%

Q: How did the Efficacy in % (Botrytis cinerea; rate of application 100 ppm) turn out when `CC(C)NC(=O)N1CC(=O)N(c2cc(Cl)cc(Cl)c2)C1=O` [iprodione] was run?
A: Its Efficacy in % is 66%.

Q: Which pest or weed control at 10 ppm (Alternaria solani; [1]) does the source give for `CON=C(C(=O)OC)c1ccccc1CON=C(C)c1cccc(C(F)(F)F)c1` [trifloxystrobin] here?
A: The pest or weed control at 10 ppm was 35%.

Q: Which results are given for `O=[N+]([O-])NC1=NCCN1Cc1ccc(Cl)nc1` [imidacloprid]?
A: Efficacy in % (Venturia inaequalis): 4%; pest or weed control at 25 ppm (Alternaria solani; [2]): 0%

Q: Which Efficacy in % (Venturia inaequalis) does the source give for `CN/C(=N\[N+](=O)[O-])NCc1cnc(Cl)s1` [clothianidin] here?
A: The Efficacy in % was 66%.

Q: Which pest or weed control at 10 ppm (Alternaria solani; [1]) does the source give for `CO/N=C(/C1=NOCCO1)c1ccccc1Oc1ncnc(Oc2ccccc2Cl)c1F` [fluoxastrobin] here?
A: Its pest or weed control at 10 ppm is 15%.

Q: With propineb [Ppopineb] as the molecule, how does the Efficacy in % (Phytophthora infestans; rate of application 10 ppm) read?
A: Its Efficacy in % is 0%.

Q: `Cn1cc(C(=O)Nc2ccc(F)cc2-c2ccc(Cl)c(Cl)c2)c(C(F)F)n1` [bixafen, N-(3′,4′-dichloro-5-fluorobiphenyl-2-yl)-3-(difluoromethyl)-1-methyl-1H-pyrazole-4-carboxamide] was tested. Which pest or weed control at 1.25 ppm (Alternaria solani; Alternaria solani, 72 h, rate of application 1.25 ppm, read-out: Efficacy in %) did it give?
A: The pest or weed control at 1.25 ppm was 65%.

Q: Which Efficacy in % (Botrytis cinerea; rate of application 5 ppm) does the source give for `N#Cc1c[nH]cc1-c1cccc2c1OC(F)(F)O2` [fludioxonil] here?
A: The Efficacy in % was 45%.

Q: `CCCCCOC(=O)Nc1cccc(CON=C(c2ccccc2)c2nnnn2C)n1` [formula 1, pentyl {6-[({[(1-methyl-1H-tetrazol-5-yl)(phenyl)methylidene]amino}oxy)methyl]pyridin-2-yl}carbamate] was tested. Which Efficacy in % (Phytophthora infestans; rate of application 0.25 ppm) did it give?
A: Its Efficacy in % is 47%.

Q: And the Efficacy in % (Phytophthora infestans; rate of application 0.5 ppm)?
A: Its Efficacy in % is 57%.

Q: What about the Efficacy in % (Phytophthora infestans; rate of application 1 ppm) of the same molecule?
A: Its Efficacy in % is 77%.

Q: What about the Efficacy in % (Venturia inaequalis) of the same molecule?
A: Its Efficacy in % is 8%.

Q: What about the pest or weed control at 5 ppm (Alternaria solani; Alternaria solani, 72 h, rate of application 5 ppm, read-out: Efficacy in %) of the same molecule?
A: The pest or weed control at 5 ppm was 0%.

Q: What about the pest or weed control at 10 ppm (Alternaria solani; [1]) of the same molecule?
A: The pest or weed control at 10 ppm was 0%.

Q: What about the pest or weed control at 25 ppm (Alternaria solani; [2]) of the same molecule?
A: Its pest or weed control at 25 ppm is 0%.

Q: And the pest or weed control at 50 ppm (Alternaria solani; [2])?
A: Its pest or weed control at 50 ppm is 8%.

Q: And the pest or weed control at 100 ppm (Alternaria solani; Alternaria solani, 72 h, rate of application 100 ppm, read-out: Efficacy in %)?
A: The pest or weed control at 100 ppm was 0%.

Q: And the Efficacy in % (Botrytis cinerea; rate of application 50 ppm)?
A: Its Efficacy in % is 4%.

Q: What about the Efficacy in % (Botrytis cinerea; rate of application 100 ppm) of the same molecule?
A: Its Efficacy in % is 4%.
